Patent US20240114943A1, “TASTE-IMPROVING COMPOSITIONS AND USES THEREOF” (AMAI PROTEINS LTD., priority 2020, published 2024)
Residue numbers refer to the chain shown, from its start.

Legend:
[1] = Sensory expert panel time-intensity evaluation (sweetness intensity over time); type: in vivo, human
Description: The samples were evaluated by a panel of (˜15) prescreened, highly-sensitive, trained and calibrated expert tasters: The parameters quantified included Sweetness profile over time (Sweetness intensity with time after intake), Linger (Area under the sweetness intensity vs. time curve (AUC) from 60 to 150 or to 300 seconds), Linger time (Delta time from initial- to zero sweetness), Ratio of the Intensity at 60 seconds to the maximal intensity, Linger T50: Time to reach 50% of the maximal sweetness, Linger T10: Time to reach 10% of the maximal sweetness. The qualitative similarity of the taste to that of sugar was also evaluated, to describe attributes other than time-intensity profile.
Dilute citrate buffer was prepared in mineral water. […]
All micro-patched SP (MP-SP) were evaluated for sweetness intensity over time. The sensory panelists for the evaluation were screened for sensitivity for small differences in sweetness intensity and other basic tastes (saltiness, sourness, and bitterness), as well as sensory memory. These screening tests were performed according to ISO standards (IS 8586). The sensory expert panel was professionally trained and continuously assessed as to reproducibility and capability to differentiate between standard samples.
Sensory Method—Time Intensity (Measuring Sweetness Intensity Over Time): • 1. The products were tasted by an expert panel. • 2. Panelists were calibrated first with sugar solutions on a scale of 0-100 (magnitude estimation), while 0=not sweet at all. Calibration solutions used were 4% sucrose (defined as 50 sweetness) and 8% (defined as 100 sweetness grade). • 3. After calibration, the tasters preformed time-intensity evaluation for each sample according to the following stages: • a. After giving a signal, all tasters put the sample in their mouth, rolled it in their oral cavity for 2 seconds, and then swallowed. • b. After swallowing, the guide measured times, and at each time point, the taster was asked to grade the currently sensed sweetness intensity on the same scale (0-100) until the taste has disappeared. • c. The time periods examined were: 1, 2, 5, 7, 10, 15, 30, 45, 60, 90, 120, 150, 180, 210, 240, 270, and 300 seconds. • 4. Each panelist tasted a total of 6 products: SP standalone and four ratios of EGCG+SP tasted in varying orders. Sucrose solution (8Bx) was always tasted at the end. • 5. All the tested products were served using code numbers. • 6. Before and between samples, the tasters were requested to rinse their mouth with mineral water, eat an unsalted cracker and a cucumber, and drink water again. • 7. 11-15 tasters participated in these tests.

[2] = Meta-analysis of sensory panel meetings: four measures of lingering; type: in vivo, human; conditions: summary of Example 4
Description: The meta-analysis was based on 44 sensory panel meetings and 55 MP agents. Statistical analysis was conducted. Four measures of lingering were defined: • AUC—the area under the time-intensity curve from 60 seconds to 300 seconds. • I60/max—the ratio between the intensity recorded at 60 seconds and the maximum intensity recorded. • T50—the time in seconds at which intensity recorded was 50% of the maximal intensity recorded • T10—the time in seconds at which intensity recorded was 10% of the maximal intensity recorded
Each graph refers to a single parameter. The graphs show means and standard errors for the MP agents that show significant improvement compared to the control (DM09 alone). The standard errors are calculated according to all the data in the Meta analysis (including data that are not shown in the graph).
The mean for the protein without MP agents is colored black.

epigallocatechin-3-gallate [EGCG, reference compound]
Sweetness profile over time (sweetness intensity) ([1]; EGCG with MNEI 0.08 mg/ml, 8 Bx, vs MNEI alone and sucrose, FIG. 1): significantly improved the sweetness profile of SP | Sweetness profile of DM09 (lingering effect) [2]: decreasing the lingering effect

OC[C@H]1O[C@@](CO)(O[C@H]2O[C@H](CO)[C@@H](O)[C@H](O)[C@H]2O)[C@@H](O)[C@@H]1O [sucrose, reference compound]
Typical linger of sugar ([1]; in vivo): ~60 s

CC1(C)[C@@H](O[C@H]2O[C@H](C(=O)O)[C@@H](O)[C@H](O)[C@H]2O[C@@H]2O[C@H](C(=O)O)[C@@H](O)[C@H](O)[C@H]2O)CC[C@]2(C)[C@H]3C(=O)C=C4[C@@H]5C[C@@](C)(C(=O)O)CC[C@]5(C)CC[C@@]4(C)[C@]3(C)CC[C@@H]12.N [Mono Ammonium Glycyrrhizinate, monoammonium glycyrrhizinate, reference compound]
Sweetness profile over time (sweetness-intensity-vs.-time curve, lingering effect) ([1]; DM09 0.02 mg/ml, 8 Bx sugar equivalence level, vs DM09 alone): decreasing the lingering effect

B1: DM09: designer monellin, SEQ ID NO: 3; the sweet protein (SP) of Example 5 (protein)
chain: GNWEIIDIGPFTQNLGKFAVDEANKIGQYGRLTFNKVIRPCMKKTIYENEGFREIKGYEYQLYVRASDKLFRADISEDYKTRGRKLLRFNGPVPPP
Linger time (Delta time (in sec) from initial to 0 sweetness intensity) ([1]; DM09 0.02 mg/ml, 8 Bx sugar equivalence level, vs DM09 alone, P<0.05): significantly higher than the delta time of DM09:lactisole:tannic acid:ammonium Glycyrrhizinate | Linger time (Delta time (in sec) from initial to 0 sweetness intensity) ([1]; DM09 0.02 mg/ml, 8 Bx sugar equivalence level, vs DM09 alone, P<0.05, listed as DM09 only): significantly higher than the delta time of Quillija:DM09 (26:1) | Linger (sweetness-intensity-vs.-time curve) ([1]; sweet protein with gymnemic acids and/or maltodextrin, FIG. 15): longest linger time

B2: MNEI: single chain Monellin (MNEI) reference protein, SEQ ID NO: 28 (protein)
chain: B1 chain with N2E, A23E, R65Y
Linger (AUC of the sweetness-intensity vs. time, 60-150 seconds) ([1]; MNEI, 8 Bx, P<0.05, FIG. 2): significantly higher than the AUC of EGCG:MNEI (60:1)
